Key:
Homo sapiens = species on record: Homo sapiens; assay: Selectivity ratio of Ki for human CB1 to Ki for human CB2
Cannabinoid receptor 1 = Cannabinoid receptor 1 (Homo sapiens, UniProt P21554); assay: Displacement of [3H]CP 55940 from human CB1 receptor in cell free system
Cannabinoid receptor 2 = Cannabinoid receptor 2 (Homo sapiens, UniProt P34972); assay: Displacement of [3H]CP 55940 from human CB2 receptor in cell free system
Cannabinoid receptor 2, sequence (P34972 whole entry): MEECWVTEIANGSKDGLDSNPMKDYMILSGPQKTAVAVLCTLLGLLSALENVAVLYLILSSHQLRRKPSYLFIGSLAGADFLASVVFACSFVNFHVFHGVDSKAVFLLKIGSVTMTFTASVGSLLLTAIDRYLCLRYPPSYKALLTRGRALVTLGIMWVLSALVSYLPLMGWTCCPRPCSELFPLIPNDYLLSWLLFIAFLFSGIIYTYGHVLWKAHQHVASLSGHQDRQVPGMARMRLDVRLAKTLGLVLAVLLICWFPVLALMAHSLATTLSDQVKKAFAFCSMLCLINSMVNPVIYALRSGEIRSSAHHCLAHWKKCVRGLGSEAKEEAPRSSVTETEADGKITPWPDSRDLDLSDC

Cannabinoid receptor 1, sequence (P21554 whole entry): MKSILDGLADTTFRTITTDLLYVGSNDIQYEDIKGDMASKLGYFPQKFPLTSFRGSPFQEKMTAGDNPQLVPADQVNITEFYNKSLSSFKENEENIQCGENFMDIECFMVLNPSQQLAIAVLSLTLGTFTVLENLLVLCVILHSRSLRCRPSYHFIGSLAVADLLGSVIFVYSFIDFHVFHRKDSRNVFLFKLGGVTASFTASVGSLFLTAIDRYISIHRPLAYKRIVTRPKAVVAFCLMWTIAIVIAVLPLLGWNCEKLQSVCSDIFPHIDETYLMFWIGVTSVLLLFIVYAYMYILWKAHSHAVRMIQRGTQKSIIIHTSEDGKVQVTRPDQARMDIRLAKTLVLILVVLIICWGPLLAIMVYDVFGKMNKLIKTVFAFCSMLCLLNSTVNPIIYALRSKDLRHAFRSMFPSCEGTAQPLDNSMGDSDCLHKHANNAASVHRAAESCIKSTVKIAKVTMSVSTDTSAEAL

SMILES | log(ratioKi) (Homo sapiens) | Ki (Cannabinoid receptor 1) | Ki (Cannabinoid receptor 2; read-out: Ki) | Ki (Cannabinoid receptor 2; read-out: pKi (converted))
C=CCCn1cc(C(=O)NC23CC4CC(CC(C4)C2)C3)c(=O)c2cc(-c3ccco3)ccc21 | 3.35 | – | – | –
CCCCCn1cc(C(=O)NC2C(C)(C)[C@@H]3CC[C@@]2(C)C3)c(=O)c2cc(-c3ccco3)ccc21 (stereo partly drawn) | 2.3 | 480 nM | 2.4 nM | –
CCC(C)(C)C(=O)Cc1cc(C)c(C)c(S(=O)(=O)N2CCCCC2)c1 | 2.38 | 650 nM | 2.7 nM | –
CCCCCn1cc(C(=O)NC23CC4CC(CC(C4)C2)C3)c(=O)c2cc(-c3ccc(O)cc3)ccc21 | 3.38 | – | – | –
CCCCCCC(C)(C)c1cc(OC)c2c(c1)OC(C)(C)[C@@H]1CC=C(C)C[C@@H]21 | 2.21 | 1040 nM | 6.4 nM | –
CC1=CC[C@@H]2[C@@H](C1)c1c(O)cc(C(C)(C)C3CCCCCC3)cc1OC2(C)C | 0.63 | – | – | –
CCCCCn1cc(C(=O)NC23CC4CC(CC(C4)C2)C3)c(=O)c2cc(-c3ccc(C#N)cc3)ccc21 | 2.38 | – | – | –
CCCCCCC1CCCc2c1cc1c(c2O)[C@@H]2CC(C)=CC[C@H]2C(C)(C)O1 (stereo partly drawn) | 0.6 | 22.3 nM | 5.4 nM | –
CCCCCn1cc(C(=O)NC23CC4CC(CC(C4)C2)C3)c(=O)c2cccc(C)c21 | > 3.3 | > 10000 nM | 4.9 nM | –
COc1ccc2c(c1)c(C(=O)C1C(C)(C)C1(C)C)cn2CC1CCOCC1 | 2 | – | – | –
COc1cccc2c(C(=O)C3C(C)(C)C3(C)C)cn(CC3CCOCC3)c12 | – | – | 0.1 nM | –
CCCCCCC1(c2cc(O)c3c(c2)OC(C)(C)[C@@H]2CC=C(C)C[C@@H]32)OCCO1 | 0.43 | 0.5 nM | 0.2 nM | –
CCCCCn1cc(C(=O)NC2C3CC4CC(C3)CC2C4)c(=O)c2ccccc21 (stereo not drawn) | 2.16 | – | – | –
CC1=CC[C@@H]2[C@@H](C1)c1c(OC(=O)CCCN3CCOCC3)cc(C(C)(C)CCCCC#N)cc1OC2(C)C | 0.02 | 8.4 nM | 8 nM | –
C#Cc1ccc2c(c1)c(=O)c(C(=O)NC13CC4CC(CC(C4)C1)C3)cn2CCCCC | 3.05 | – | – | –
COc1ccc(OC)c2c(=O)c(C(=O)NC34CC5CC(CC(C5)C3)C4)c[nH]c12 | 1.6 | 2100 nM | 52.6 nM | –
Cc1nc(C(=O)NC23CC4CC(CC(C4)C2)C3)c(C)n1-c1ccccc1 | 3.2 | – | – | –
CCCCCCNC(=O)c1cn(CCCCC)c2ccc(Br)cc2c1=O | – | – | – | 891 nM
Cc1c(C(C)(C)C)s/c(=N\C(=O)c2ccc(Br)cc2)n1CC1CC1 | 1.6 | 53 nM | 1.2 nM | –
CCCCCn1cc(C(=O)NC23CC4CC(CC(C4)C2)C3)c(=O)c2cc(I)ccc21 | 2.01 | – | – | –
COCCn1c(C)c(C(C)(C)C)s/c1=N\C(=O)c1ccc(C(F)(F)F)cc1 | 2.6 | 4100 nM | 10 nM | –

SMILES | log(ratioKi) (Homo sapiens) | Ki (Cannabinoid receptor 1) | Ki (Cannabinoid receptor 2; read-out: Ki) | Ki (Cannabinoid receptor 2; read-out: pKi (converted))
N#Cc1c(Oc2cccc(OS(=O)(=O)CCCC(F)(F)F)c2)cccc1C(F)(F)F | 0.03 | 48.3 nM | – | –
CC1(C)C(C(=O)c2cn(C[C@@H]3CCCO3)c3ccccc23)C1(C)C | 1.82 | – | – | –
COCCn1c(C)c(C)s/c1=N\C(=O)C1C(C)(C)C1(C)C | 2.62 | – | 0.64 nM | –
Cc1ccc2c(C(=O)C3C(C)(C)C3(C)C)cn(CC3CCOCC3)c2c1 | – | – | 0.2 nM | –
CC1=CC[C@@H]2[C@@H](C1)c1c(O)cc(C3(C4CCCCC4)SCCS3)cc1OC2(C)C | 0.24 | – | – | –
CCCCC/C=C\C/C=C\C/C=C\C/C=C\CCCC(=O)N[C@H]1C[C@@H]1O | – | – | – | 191 nM
CC1(C)C(C(=O)c2cn(CCN3CCOCC3)c3cccc(N)c23)C1(C)C | 2.05 | 3500 nM | – | –
Cc1c(Cl)ccc2c(=O)c(C(=O)NC34CC5CC(CC(C5)C3)C4)c[nH]c12 | 2.59 | > 10000 nM | 25.5 nM | –
CCCCCn1cc(C(=O)NC23CC4CC(CC(C4)C2)C3)c(=O)c2cc(-c3c(C)noc3C)ccc21 | – | – | – | 102 nM
Cc1c(C(=O)NC2CCCCC2)nn(-c2ccc(Cl)c(Cl)c2)c1-n1c(C)ccc1C | 1.05 | – | – | –
CC1(C)C(C(=O)c2cn(CC3CCOCC3)c3ccc(OCc4ccccc4)cc23)C1(C)C | 2.3 | 234 nM | – | –
Cc1nc(C(=O)Nc2ccccc2C(F)(F)F)c(C)n1-c1ccccc1 | 2.6 | 1420 nM | 3.5 nM | –
CCCCCCC1(c2cc(O)c3c(c2)OC(C)(C)[C@@H]2CC=C(C)C[C@@H]32)CC1 | 0.07 | 1 nM | 0.9 nM | –
Cc1c(C(C)(C)C)s/c(=N\C(=O)c2ccc(OC(F)(F)F)cc2)n1CC1CC1 | 2.28 | 1100 nM | 5.7 nM | –
CC1(Cc2ccccc2)COc2cc(C(=O)N3CCCCC3)ccc21 (stereo not drawn) | 1.37 | > 10000 nM | – | –
CCCCCn1cc(C(=O)NC23CC4CC(CC(C4)C2)C3)c(=O)c2cc(-c3cc(C)c(OC)c(C)c3)ccc21 | 1.38 | – | – | –
Cc1ccc(C(=O)NC2C(C)(C)[C@@H]3CC[C@]2(C)C3)cc1S(=O)(=O)N1CCOCC1 (stereo partly drawn) | 1.5 | 130 nM | 3.9 nM | –
CC1=CC[C@@H]2[C@@H](C1)c1c(O)cc(-c3cccc4ccccc34)cc1OC2(C)C | 0.09 | – | – | –
CN1CCCCC1Cn1cc(C(=O)c2cc([N+](=O)[O-])ccc2I)c2ccccc21 (stereo not drawn) | 2.64 | – | – | –
Cc1ccc(NC(=O)C(C)(C(F)(F)F)C(F)(F)F)cc1S(=O)(=O)N1CCOCC1 | 1.31 | – | – | –
O=C(c1cn(CC2CCOCC2)c2ccccc12)C1CCCC1 | 1.07 | – | – | –

SMILES | log(ratioKi) (Homo sapiens) | Ki (Cannabinoid receptor 1) | Ki (Cannabinoid receptor 2; read-out: Ki) | Ki (Cannabinoid receptor 2; read-out: pKi (converted))
COCc1ccc2c(c1)c(C(=O)C1C(C)(C)C1(C)C)cn2CC1CCOCC1 | – | – | 25 nM | –
CC1(C)C(C(=O)c2cn(CC3CCOCC3)c3cc(O)ccc23)C1(C)C | 2.55 | 2950 nM | 8.3 nM | –
CCCCc1c(C(=O)NC23CC4CC(CC(C4)C2)C3)nc(C)n1-c1ccccc1 | 2.3 | – | – | –
Cc1ccc(-c2nc(CC3CCCCC3)cs2)cc1S(=O)(=O)N1CCOCC1 | 1.22 | – | – | –
CCCCCn1cc(C(=O)NC23CC4CC(CC(C4)C2)C3)c(=O)c2cc(CC)ccc21 | 1.74 | – | – | –
Cc1c(C(=O)NC2CCCCC2)nn(-c2ccc(Cl)c(Cl)c2)c1-n1cccc1 | 0.52 | – | – | –
CCCCCn1cc(C(=O)NC23CC4CC(CC(C4)C2)C3)c(=O)c2cc(Sc3ccccc3)ccc21 | 2.28 | – | – | –
CC1(C)C(C(=O)c2cn(CC3CCOCC3)c3cc(-c4ccccc4)ccc23)C1(C)C | 2.27 | – | 0.4 nM | –
CCCCCCC1(c2cc(O)c3c(c2)OC(C)(C)[C@@H]2CC=C(C)C[C@@H]32)CC1(Cl)Cl (stereo partly drawn) | 0.19 | 1.8 nM | 1.3 nM | –
O=S(=O)(CCCC(F)(F)F)Oc1cccc(Oc2cccc3c2C[C@H](CO)C3)c1 | – | – | – | 4.27 nM
Cc1nc(C(=O)NC23CC4CC(CC2C4)C3)c(C)n1-c1ccccc1 | 2.74 | 5440 nM | 9.7 nM | –
CCCC(C)(C)c1ccc2c(c1)OC(C)(C)[C@@H]1CC=C(C)C[C@@H]21 | 2.3 | – | – | –
CCCCCn1c(C)c(C(=O)c2ccc(CCCC)c3ccc(C)cc23)c2ccccc21 | 0.81 | 42 nM | 6.5 nM | –
CCCCCn1cc(C(=O)NC23CC4CC(CC(C4)C2)C3)c(=O)c2ccccc21 | 0.95 | – | – | –
CC1(C)C(C(=O)c2cn(CC3CCOCC3)c3ccc(N)cc23)C1(C)C | 2.05 | 1000 nM | 9 nM | –
CCCCCn1c(C)c(C(=O)c2cccc3ccccc23)c2ccccc21 | 0.28 | – | – | –
CCCCCn1cc(C(=O)NC23CC4CC(CC(C4)C2)C3)c(=O)c2cc(-c3ccccc3)ccc21 | 3.42 | – | – | –
CCCCCn1cc(C(=O)NC23CC4CC(CC(C4)C2)C3)c(=O)c2cc(Br)ccc21 | 1.82 | – | – | –
Cc1ccc(C(=O)NC(C(C)(C)C)C(C)(C)C)cc1S(=O)(=O)N1CCOCC1 | 0.95 | – | – | –
Cc1ccc(NC(=O)C2C(C)(C)C2(C)C)cc1S(=O)(=O)N1CCOCC1 | 2.16 | – | – | –
CCCCCn1cc(C(=O)NC23CC4CC(CC(C4)C2)C3)c(=O)c2cc(-n3ccnc3)ccc21 | 3.1 | – | – | –

SMILES | log(ratioKi) (Homo sapiens) | Ki (Cannabinoid receptor 1) | Ki (Cannabinoid receptor 2; read-out: Ki) | Ki (Cannabinoid receptor 2; read-out: pKi (converted))
CCCCCn1cc(C(=O)NC23CC4CC(CC(C4)C2)C3)c(=O)c2cc(-c3cccs3)ccc21 | 3.68 | – | – | –
CCCCCn1cc(C(=O)NC23CC4CC(CC(C4)C2)C3)c(=O)c2cc(-c3ccc(Cl)s3)ccc21 | 2.35 | – | – | –
CC1=CC[C@@H]2[C@@H](C1)c1c(O)cc(C3(C#N)CCCCC3)cc1OC2(C)C | 0.34 | – | – | –
C#CCn1cc(C(=O)NC23CC4CC(CC(C4)C2)C3)c(=O)c2cc(Br)ccc21 | 1.81 | – | – | –
CCCCCn1cc(C(=O)NC23CC4CC(CC(C4)C2)C3)c(=O)c2cc(C(F)(F)F)ccc21 | 2.34 | – | – | –
CCCCCn1cc(C(=O)NC23CC4CC(CC(C4)C2)C3)c(=O)c2cc(C3=CCCCC3)ccc21 | 3.08 | – | – | –
CCCCCOc1c(OC)ccc2cc(C(=O)NCc3ccc4c(c3)OCO4)c(=O)[nH]c12 | – | 2370 nM | – | –
COc1ccc2c(c1)c(CCN1CCOCC1)c(C)n2C(=O)c1cccc(Cl)c1Cl | 2.21 | – | – | –
COCCn1cc(C(=O)C2C(C)(C)C2(C)C)c2ccccc21 | 2.35 | – | – | –
CCCCCn1cc(C(=O)NC23CC4CC(CC(C4)C2)C3)c(=O)c2cc(-c3ccco3)ccc21 | 4.15 | – | – | –
CCCCCn1cc(C(=O)NC23CC4CC(CC(C4)C2)C3)c(=O)c2cc(C3CCCCC3)ccc21 | 3.14 | – | – | –
CCCCCn1cc(C(=O)NC23CC4CC(CC(C4)C2)C3)c(=O)c2cc(-c3ccc(F)cc3F)ccc21 | 2.79 | – | – | –
Cc1ccc(-c2nc(CC(C)(C)C)cs2)cc1S(=O)(=O)N1CCOCC1 | 1.58 | – | – | –
CCC(C)(C)C(=O)Nc1cc(CN2CCOCC2)c(C)cn1 | 2.19 | – | – | –
CCCCCn1cc(C(=O)NC23CC4CC(CC(C4)C2)C3)c(=O)c2cc(-c3ccc(Cl)cc3)ccc21 | 3 | – | – | –
Cc1ccc(NC(=O)C2CCCCC2(C)C)cc1S(=O)(=O)N1CCOCC1 (stereo not drawn) | 1.85 | – | – | –
CCCCCn1cc(C(=O)NC23CC4CC(CC(C4)C2)C3)c(=O)c2cc(CCc3ccccc3)ccc21 | 2.27 | – | – | –
COc1ccc(-c2oc3cc(OC)ccc3c2C(=O)c2ccc(C#N)cc2)cc1 | – | – | – | 14800 nM
CCc1nc(C(=O)NC23CC4CC(CC(C4)C2)C3)c(C)n1-c1ccccc1 | 3.41 | – | – | –
